Measured values published in ChEMBL document CHEMBL3865833, “Functional induction of P-glycoprotein efflux pump by phenyl benzenesulfonamides: Synthesis and biological evaluation of T0901317 analogs” (Eur J Med Chem, 2016).
Calls of active or inactive are those of the source. No cut-off for these calls is given here.

Assays:
LS180 [1] = assay: (§1) Activation of PXR/LXR in human LS180 cells assessed as induction of P-gp measured as intracellular accumulation of Rhodamine-123 at 5 uM preincubated for 48 hrs followed by 40 mins incubation with HANKS buffer and subsequent addition of Rhodamine-123 measured after 90 mins by fluorescence analysis relative to control; format: cell-based
[2] = Cytotoxicity against human LS180 cells assessed as effect on cell viability at 50 uM measured after 24 hrs by MTT assay relative to control; format: toxicity, cell-based; settings: read-out: Activity
[3] = Cytotoxicity against human SH-SY5Y cells assessed as effect on cell viability at 50 uM measured after 24 hrs by MTT assay relative to control; format: toxicity, cell-based; settings: read-out: Activity
LS180 [4] = assay: as §1, with “by measuring decrease in” for “measured as”, “0.3” for “5”, “assay” for “analysis relative to control”; format: cell-based
[5] = Neuroprotective activity in human SH-SY5Y cells assessed as decrease in amyloid beta-induced cytotoxicity measured as cell viability at 5 uM pretreated for 30 mins prior amyloid beta-challenge measured after 48 hrs by MTT assay (reference value: 68%); format: functional
[6] = Therapeutic index, ratio of effective concentration for cytotoxicity in human LS180 cells to effective concentration for activation of PXR/LXR in human LS180 cells assessed as induction of P-gp; format: cell-based; settings: read-out: TI
[7] = Therapeutic index, ratio of effective concentration for cytotoxicity in human SH-SY5Y cells to effective concentration for activation of PXR/LXR in human LS180 cells assessed as induction of P-gp; format: cell-based; settings: read-out: TI
[8] = Cytotoxicity against human LS180 cells assessed as effect on cell viability measured after 24 hrs by MTT assay; format: toxicity, cell-based
[9] = Cytotoxicity against human SH-SY5Y cells assessed as effect on cell viability measured after 24 hrs by MTT assay; format: toxicity, cell-based
LS180 [10] = assay: Activation of PXR/LXR in human LS180 cells assessed as induction of P-gp at 5 uM measured after 24 hrs by Western blot analysis; format: cell-based
LS180 [11] = assay: as §1, with “by measuring” for “measured as”, “10” for “5”, “assay” for “analysis”; format: cell-based

Compound	Activity (LS180 [1]) [%]	viability at 24 h, 50 µM [2] [%]	viability at 24 h, 50 µM [3] [%]	Activity (LS180 [4])	Activity [5] [%]	selectivity ratio [6]	selectivity ratio [7]	IC50 at 24 h [8] [µM]	IC50 at 24 h [9] [µM]	Activity (LS180 [10])	Activity (LS180 [11]) [%]
O=S(=O)(c1ccccc1)N(Cc1cn(-c2c(F)cccc2F)nn1)c1ccc(C(O)(C(F)(F)F)C(F)(F)F)cc1	65.1	74.5	125	Active	75	10	10				
CC(=O)c1ccc(N(Cc2cn(-c3ccc(C(F)(F)F)cc3)nn2)S(=O)(=O)c2ccccc2)cc1	48.4	76.7	108	Active	79	> 166	> 166	> 50	> 50	Active	
CO[C@H]1/C=C/O[C@@]2(C)Oc3c(C)c(O)c4c(O)c(c(/C=N/N5CCN(C)CC5)c(O)c4c3C2=O)NC(=O)/C(C)=C\C=C\[C@H](C)[C@H](O)[C@@H](C)[C@@H](O)[C@@H](C)[C@H](OC(C)=O)[C@@H]1C											66.9
